According to patent US20200347136A1, “CONSTRAINED CYCLIC PEPTIDES AS INHIBITORS OF THE CD2:CD58 PROTEIN-PROTEIN INTERACTION FOR TREATMENT OF DISEASES AND AUTOIMMUNE DISORDERS” (Board of Supervisors for the University of Louisiana System, priority 2019, published 2020):
Numbered stars: 1 amine (or outer) side, 2 acyl side, 3 side chain; on linkers, the order of the positions; unused ones are H or OH. Bridge positions count the residues as written; N and C are the ends. Square brackets hold non-standard residues; d marks the D form. Peptide text beside a SMILES is read from it. βAla(3R-(1-naphthyl)) = O=C(C[C@@H](N[*:1])c1cccc2ccccc12)[*:2]; βAla(3S-(1-naphthyl)) = O=C(C[C@H](N[*:1])c1cccc2ccccc12)[*:2]; X1 = O=C(CCc1cccc2c1oc1c(CCN[*:1])cccc12)[*:2]

Key:
[1] = tested on: CD2:CD58 interaction (SRBC expressing CD58 / Jurkat cells expressing CD2); assay: E-rosetting assay, sheep red blood cells / Jurkat T cells; format: cell-based
Procedure: Peptides were added to AET-treated sheep red blood cells (SRBC) (expressing CD58 protein) first, and Jurkat cells (expressing CD2 protein) labeled with BCECF were added later. Cells with five or more SRBC bound were counted as rosettes. Values are percent inhibition of peptide-treated cells and are expressed as the mean of three experimental values. Error bars represent standard error of the mean (SEM).
The ability of peptides to inhibit cell adhesion was evaluated using E-rosetting assay via interaction between sheep red blood cells (SRBC) expressing CD58 and Jurkat T cells expressing CD2 protein. When these cells are incubated, they adhere to each other. Each Jurkat cell adheres to many sheep red blood cells. Five or more SRBC adhering to a Jurkat cell is counted as positive E-rosetting.

[2] = tested on: collagen-induced arthritis; conditions: cited from earlier work
Calu-3 cells = conditions: read-out: IC50 Calu-3 (HER2+); antiproliferative activity
Procedure: (§1) Antiproliferative activity of grafted cyclic peptides. Antiproliferative activity of the designed grafted peptides was evaluated in different HER2-overexpressing cancer cell lines as well as HER2 negative cancer cell lines.
(§2) Table 1. […] Single letter amino acid code was used for peptide sequence. Lower case letters refer to D amino acids and capital letters refer to L amino acids. Chirality of Anapa was indicated with R and S configuration in italics. Antiproliferative activity of peptides in cancer cell lines are given as IC50 in μM. Disulfide bonds between the cysteines are underlined.

MCF-7 cells = conditions: read-out: IC50 MCF-7 (HER2−); antiproliferative activity
Procedure: as §1, §2

BT-474 cells = conditions: for IC50: read-out: IC50 BT-474 (HER2+), antiproliferative activity
Procedure: as §1, §2

A549 cells = conditions: read-out: IC50 A549 (HER2+); antiproliferative activity
Procedure: as §1, §2

[3] = target: T1, CD2:CD58 interaction (Jurkat T cells / HFLS-RA cells) (Homo sapiens, UniProt P19256); assay: cell adhesion inhibition, Jurkat / HFLS-RA cells; format: cell-based
T1 construct: we used HFLS-RA cells derived from RA patients; endogenous in cells; host or cells: HFLS-RA (CD58) and Jurkat (CD2)
T1 sequence (P19256 29-250): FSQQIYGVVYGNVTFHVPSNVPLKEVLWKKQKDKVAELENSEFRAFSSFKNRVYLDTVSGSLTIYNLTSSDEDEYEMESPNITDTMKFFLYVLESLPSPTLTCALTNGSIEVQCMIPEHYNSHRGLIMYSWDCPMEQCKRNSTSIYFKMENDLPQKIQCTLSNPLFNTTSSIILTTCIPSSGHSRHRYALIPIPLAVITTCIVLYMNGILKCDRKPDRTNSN
Procedure: (§7) The ability of peptides to inhibit the CD2:CD58 protein-protein interaction was studied by evaluating the adhesion interaction between cells using model systems. […] The model systems we used included Jurkat and ovarian cancer (OVACR-3) cells and Jurkat and human fibroblast-like synoviocyte-rheumatoid arthritis (HFLS-RA) cells. Since OVCAR-3 cells and HFLS-RA cells express CD58, adhesion interactions between CD2 and CD58 can be studied using these model systems. Peptides were incubated with adherent cells that expressed CD58, and Jurkat cells were added to evaluate the adhesion. […] A broad range of concentrations (0.0005 to 200 μM) was used in the first screen and based on the inhibitory activity of the peptides in that concentration range, data points for a dose-response study were chosen. The concentration-response curves for the various peptides were obtained in the range of 0.0005 to 10 μM.
(§8) Cell adhesion was also evaluated in a well-established E-rosetting assay. […] To evaluate the cell adhesion inhibitory activity of peptides from cells associated with autoimmune disease, we used HFLS-RA cells derived from RA patients.

[4] = target: T2, CD2:CD58 interaction (Jurkat T cells / OVCAR-3 cells) (Homo sapiens, UniProt P19256); assay: cell adhesion inhibition, Jurkat / OVCAR-3 cells; format: cell-based
T2 construct: CD2+ Jurkat T cells and CD58+ OVCAR-3 cells; endogenous in cells; host or cells: OVCAR-3 (CD58) and Jurkat (CD2)
T2 sequence (P19256 29-250): T1 sequence (P19256 29-250)
Procedure: as §7, §8

CD2:CD58 [5] = assay: Cell adhesion inhibition IC50 (µM) | T cell-HFLS-RA
Procedure: (§3) Table printed on a drawing sheet, Fig. 5
Head of the field: Cell adhesion inhibition IC50 (µM) | T cell-HFLS-RA
(§4) Table of stable peptides designed based on sunflower trypsin inhibitor (SFTI) and their cell adhesion inhibition activities in a model system. OVCAR-3 and HFLS-RA cells express CD58. Jurkat T cells express CD2 protein. Inhibition of adhesion between Jurkat and OVCAR-3/HFLS-RA cells was evaluated. Cell adhesion inhibition is represented as IC50 value
(§5) First copying reader's note: In the SFTI sequences the stretch from the first C to the second C is underlined on the sheet; the ± error stands inside the IC50 cells.
(§6) Where the first naming reader finds the target: description_of_the_figure: OVCAR-3 and HFLS-RA cells express CD58. Jurkat T cells express CD2 protein. Inhibition of adhesion between Jurkat and OVCAR-3/HFLS-RA cells was evaluated.

CD2:CD58 interaction = target: T3, CD2:CD58 interaction (Homo sapiens, UniProt P19256); assay: cell adhesion inhibition between T cells (CD2) and epithelial cells (CD58), model systems; format: cell-based
T3 construct: Peptides were incubated with adherent cells that expressed CD58; endogenous in cells; host or cells: Jurkat T cells with OVCAR-3 or HFLS-RA cells
T3 sequence (P19256 29-250): T1 sequence (P19256 29-250)
Procedure: as §7

CD2:CD58 [6] = assay: Cell adhesion inhibition IC50 (µM) | T cell-OVCAR-3
Procedure: as §3
Head of the field: Cell adhesion inhibition IC50 (µM) | T cell-OVCAR-3
as §4, §5, §6

Calu-3 xenograft tumors = assay: Calu-3 xenograft model of lung cancer in nude mice; format: in vivo; conditions: Calu-3 xenograft; SFTI-G5 8 mg/kg intratumoral thrice a week; antibodies 12 then 6 mg/kg once a week
Procedure: 5×10^6 Calu-3 cells suspended in serum-free medium were subcutaneously inoculated in left flank region of mice to induce lung cancer (Foxn1-nude). Peptide (8 mg/kg) was administered via intratumoral injection three times a week after 10 days, Pertuzumab was injected with a loading dose of 12 mg/kg and then 6 mg/kg as maintenance dose intraperitonially once a week, Trastuzumab and pertuzumab combination was injected at a loading dose of 12 mg/kg and then 6 mg/kg as maintenance dose once a week. […] For comparison, pertuzumab (up triangle, blue) and trastuzumab and pertuzumab combination (down triangle, red) also shown (with standard errors for n=6). […] C) PPI inhibition assessed by PLA on tumor tissue sample. […] Tumor sections were homogenized, and protein was extracted and subjected to Western blot. […] (** p<0.01). Mean±SEM.
HER2 dimerization inhibitors such as pertuzumab and trastuzumab and pertuzumab combinations were also administered as control groups (FIG. 11A). […] During the course of the experiment, the tumor size in the control xenograft group without any treatment continued to increase, reaching a diameter of ˜9 mm in 28 days (FIG. 11B).
To evaluate the phosphorylation of HER2 protein, Western blot analysis was performed on frozen tumor samples.

For `CC[C@H](C)[C@@H]1NC(=O)[C@H](CC(=O)O)NC(=O)[C@H](CC(=O)O)NC(=O)[C@@H]2CCCN2C(=O)[C@H]2CCCN2C(=O)[C@H](CC(=O)O)NC(=O)[C@H](Cc2ccc(O)cc2)NC(=O)[C@H]([C@@H](C)CC)NC(=O)[C@H](CO)NC(=O)[C@H](CCCCN)NC1=O` [Peptide 6, Cyclo(SIYDpPDDIK)], the IC50 [1] is listed as 9.4 ± 0.3 nM, the histopathology of paws ([2]; 0.5 mg/kg) is listed as “clear joint space with normal cartilage interface” and the “anti-CII antibodies in sera” value ([2]; 0.5 and 1 mg/kg i.v.) is listed as “dose-dependent reduction”. For the same compound, the “acute clinical signs of illness / direct toxicity” value ([2]; DBA/1 mice, during dosing) was “minimal, if any, direct toxicity”.

With `CC[C@H](C)[C@@H]1NC(=O)[C@H](C)NC(=O)C[C@@H](c2cccc3ccccc23)NC(=O)[C@@H]2CSSC[C@H](NC(=O)C[C@@H](c3cccc4ccccc34)NC(=O)[C@H](C)NC(=O)[C@@H]3CCCN3C(=O)[C@@H]3CCCN3C1=O)C(=O)N[C@@H](C)C(=O)N1CCC[C@H]1C(=O)N[C@@H](CC(=O)O)C(=O)N[C@@H](C)C(=O)N[C@@H](Cc1ccccc1)C(=O)N2` [Control-G, Cyclo(C(S-X)AIPPA(S-X)CAPDAF), reference compound] (cyclo(AFC[βAla(3S-(1-naphthyl))]AIPPA[βAla(3S-(1-naphthyl))]CAPD); disulfide 3-11) the IC50 (Calu-3 cells) was > 50 µM, the IC50 (MCF-7 cells) was > 50 µM and the IC50 (BT-474 cells) was > 50 µM. For the same compound, the IC50 (A549 cells) was > 50 µM.

Compound `C[C@@H]1NC(=O)[C@@H]2CSSC[C@H](NC(=O)[C@H](CC(=O)O)NC(=O)[C@H](CC(=O)O)NC(=O)CNC(=O)[C@H](CC(=O)O)NC(=O)[C@H](Cc3ccc(O)cc3)NC1=O)C(=O)N[C@@H](CCCCN)C(=O)N[C@@H](CO)C(=O)N[C@@H](C)C(=O)NCCc1cccc3c1Oc1c(cccc1-3)CCC(=O)N[C@@H](CO)C(=O)N2` [SFTI-DBF] (cyclo(AYDGDDCKSA[X1]SC); disulfide 7-13) has an IC50 [3] of 3 nM and an IC50 [4] of 0.61 nM.

With `N=C(N)NCCC[C@@H]1NC(=O)[C@H]2CCCN2C(=O)[C@@H]2CCCN2C(=O)[C@H](CCCNC(=N)N)NC(=O)C[C@H](c2cccc3ccccc23)NC(=O)[C@H](Cc2ccccc2)NC(=O)[C@H](CC(=O)O)NC(=O)[C@H](CC(=O)O)NC(=O)[C@H](Cc2ccccc2)NC(=O)C[C@H](c2cccc3ccccc23)NC1=O` [Compound 18, Cyclo(PpR(R-X)FDDF(R-X)R), reference compound] (cyclo(P[dP]R[βAla(3R-(1-naphthyl))]FDDF[βAla(3R-(1-naphthyl))]R)) the IC50 (MCF-7 cells) was > 50 µM.

With `CC[C@H](C)[C@@H]1NC(=O)[C@H](CO)NC(=O)[C@H](CC(=O)O)NC(=O)[C@H](Cc2ccccc2)NC(=O)[C@@H]2CSSC[C@H](NC(=O)[C@H](Cc3ccccc3)NC(=O)[C@H](CC(=O)O)NC(=O)[C@@H]3CCCN3C(=O)[C@@H]3CCCN3C1=O)C(=O)N[C@H](c1cccc3ccccc13)CC(=O)N[C@@H](CCCNC(=N)N)C(=O)N1CCC[C@H]1C(=O)NCC(=O)N[C@@H](CCCNC(=N)N)C(=O)N[C@H](c1cccc3ccccc13)CC(=O)N2` [SFTI-G4] (cyclo(C[βAla(3S-(1-naphthyl))]RPGR[βAla(3S-(1-naphthyl))]CFDSIPPDF); disulfide 1-8) the IC50 (MCF-7 cells) was > 30 µM and the IC50 (BT-474 cells) was 17.2 ± 1.03 µM.

In the case of `C[C@@H]1NC(=O)[C@@H]2CSSC[C@H](NC(=O)[C@H](CC(=O)O)NC(=O)[C@H](CC(=O)O)NC(=O)CNC(=O)[C@H](CC(=O)O)NC(=O)[C@H](Cc3ccc(O)cc3)NC1=O)C(=O)N[C@@H](CCCCN)C(=O)N[C@@H](CO)C(=O)N[C@@H](C)C(=O)N1CCC[C@H]1C(=O)N1CCC[C@H]1C(=O)N[C@@H](CO)C(=O)N2` [SFTI-a1] (cyclo(APPSCAYDGDDCKS); disulfide 5-12), the IC50 (CD2:CD58 [5]) is reported as 0.0388 ± 0.0102 µM and the IC50 (CD2:CD58 interaction) is reported as 22 nM.

With “Cyclo(CTKSIPPICFPDGR) (cyclic) [SFTI-wt (control)]” the IC50 (CD2:CD58 [5]) was > 50 µM and the IC50 (CD2:CD58 [6]) was > 50 µM.

In the case of `N=C(N)NCCC[C@@H]1NC(=O)[C@H]2CCCN2C(=O)[C@@H]2CCCN2C(=O)[C@H](CCCNC(=N)N)NC(=O)C[C@H](c2cccc3ccccc23)NC(=O)[C@@H]2CSSC[C@H](NC(=O)C[C@H](c3cccc4ccccc34)NC1=O)C(=O)N[C@@H](Cc1ccccc1)C(=O)N[C@@H](Cc1ccccc1)C(=O)N2` [SFTI-G2, Cyclo(C(R-X)RPpR(R-X)CFF)] (cyclo(C[βAla(3R-(1-naphthyl))]RP[dP]R[βAla(3R-(1-naphthyl))]CFF); disulfide 1-8), the IC50 (MCF-7 cells) is reported as > 50 µM and the IC50 (BT-474 cells) is reported as 5.23 ± 1.38 µM.

For `N=C(N)NCCC[C@@H]1NC(=O)[C@@H]2CCCN2C(=O)[C@@H]2CCCN2C(=O)[C@H](CCCNC(=N)N)NC(=O)C[C@H](c2cccc3ccccc23)NC(=O)[C@@H]2CSSC[C@H](NC(=O)C[C@H](c3cccc4ccccc34)NC1=O)C(=O)N[C@@H](Cc1ccccc1)C(=O)N2` [SFTI-G3, Cyclo(C(R-X)RPPR(R-X)CF)] (cyclo(C[βAla(3R-(1-naphthyl))]RPPR[βAla(3R-(1-naphthyl))]CF); disulfide 1-8), the IC50 (MCF-7 cells) was > 50 µM and the IC50 (BT-474 cells) was 3.65 ± 0.41 µM.

Work on `C[C@@H]1NC(=O)[C@H](CCCCN)NC(=O)[C@@H]2CSSC[C@H](NC(=O)[C@H](CO)NC(=O)[C@@H]3CCCN3C(=O)[C@@H]3CCCN3C(=O)[C@H](C)NC(=O)[C@H](CO)NC1=O)C(=O)N[C@@H](Cc1ccc(O)cc1)C(=O)N[C@@H](CC(=O)O)C(=O)NCC(=O)N[C@@H](CC(=O)O)C(=O)N[C@@H](CC(=O)O)C(=O)N2` [SFTI-a] (cyclo(APPSCYDGDDCKAS); disulfide 5-11) yielded an IC50 (CD2:CD58 [6]) of 0.043 ± 0.025 µM.

In the case of `CC[C@H](C)[C@@H]1NC(=O)[C@H](CO)NC(=O)[C@H](CC(=O)O)NC(=O)[C@H](Cc2ccccc2)NC(=O)[C@@H]2CSSC[C@H](NC(=O)[C@H](Cc3ccccc3)NC(=O)[C@H](CC(=O)O)NC1=O)C(=O)N[C@H](c1cccc3ccccc13)CC(=O)N[C@@H](CCCNC(=N)N)C(=O)N[C@@H](CC(=O)O)C(=O)N[C@@H](CCCNC(=N)N)C(=O)N[C@H](c1cccc3ccccc13)CC(=O)N2` [SFTI-G1, Cyclo(C(S-X)RDR(S-X)CFDSIDF)] (cyclo(C[βAla(3S-(1-naphthyl))]RDR[βAla(3S-(1-naphthyl))]CFDSIDF); disulfide 1-7), the IC50 (MCF-7 cells) is reported as > 50 µM and the IC50 (BT-474 cells) is reported as 4.16 ± 0.179 µM.

For `CC[C@H](C)[C@@H]1NC(=O)[C@H](CCCNC(=N)N)NC(=O)C[C@H](c2cccc3ccccc23)NC(=O)[C@@H]2CSSC[C@H](NC(=O)C[C@H](c3cccc4ccccc34)NC(=O)[C@H](CCCNC(=N)N)NC(=O)[C@@H]3CCCN3C(=O)[C@@H]3CCCN3C1=O)C(=O)N[C@@H](Cc1ccccc1)C(=O)N1CCC[C@H]1C(=O)N[C@@H](CC(=O)O)C(=O)N[C@@H](CC(=O)O)C(=O)N[C@@H](Cc1ccccc1)C(=O)N2` [SFTI-G6, Cyclo(C(R-X)RIPPR(R-X)CFPDDF)], the IC50 (MCF-7 cells) was > 50 µM, the “change of antiproliferative activity on altering Anapa chirality (S to R)” value (BT-474 cells; SFTI-G6 versus SFTI-G5) was “tenfold decrease” and the IC50 (BT-474 cells) was 2.94 ± 1.06 µM.

For “pertuzumab: antibody known to bind HER2 ECD domain II and inhibit dimerization of EGFRs [reference compound]”, the tumor growth (Calu-3 xenograft tumors) was “significantly reduced tumor growth progression”.
